For the assay, the system named is BDF1 mice, L1210 6-MP/6-TG resistant leukemia ip, survival T/C. The assay is described as follows: NCI In Vivo Anticancer Drug Screen. Data for tumor model L1210 Leukemia resistant to 6-MP and 6-Thioguanine; NSC 755, NSC 752 (intraperitoneal) in B6D2F1 (BDF1) mice. As to conditions: endpoint: mean survival time, higher = longer survival. How it is done: The antitumor activity of compounds was measured in mice bearing transplantable tumors. Survival or tumor size were measured and the results are expressed as the measurement made in the treated group (T) divided by the measurement made in the vehicle treated control group (C). The tumor model used in this assay is L1210 Leukemia resistant to 6-MP and 6-Thioguanine; NSC 755, NSC 752 (intraperitoneal) in B6D2F1 (BDF1) mice

Where [1] appears, read: dose: 50.0 mg/kg/injection, schedule: Q01DX Z (ip), vehicle: saline.
[2] abbreviates: dose: 37.5 mg/kg/injection, schedule: Q01DX Z (ip), vehicle: carboxymethylcellulose (CMC).
The mark [3] stands for this setting: dose: 75.0 mg/kg/injection, schedule: Q01DX Z (ip), vehicle: carboxymethylcellulose (CMC).

Where “and” joins values, the source holds several entries; their conditions need not be identical. Equal entries are not always repeated. Toxic doses and inconclusive results are not listed.

The results in this text go back to PubChem BioAssay AID308 (DTP/NCI, 2004).

With `CC[C@]1(O)C[C@H]2CN(CCc3c([nH]c4ccccc34)[C@@](C(=O)OC)(c3cc4c(cc3OC)N(C=O)[C@H]3[C@@](O)(C(=O)OC)[C@H](OC(C)=O)[C@]5(CC)C=CCN6CC[C@]43[C@@H]65)C2)C1`, the T/C is, setting by setting: (dose: 0.09 mg/kg/injection, schedule: Q01DX015 (ip), vehicle: carboxymethylcellulose (CMC)) 91 % of control and 110 % of control; (dose: 0.13 mg/kg/injection, schedule: Q01DX015 (ip), vehicle: carboxymethylcellulose (CMC)) 114 % of control and 98 % of control; (dose: 0.2 mg/kg/injection, schedule: Q01DX015 (ip), vehicle: carboxymethylcellulose (CMC)) 94 % of control and 106 % of control; (dose: 0.3 mg/kg/injection, schedule: Q01DX015 (ip), vehicle: carboxymethylcellulose (CMC)) 90 % of control and 92 % of control; (dose: 0.45 mg/kg/injection, schedule: Q01DX015 (ip), vehicle: carboxymethylcellulose (CMC)) 93 % of control.

Regarding `COS(C)(=O)=O`, the T/C by setting is: (dose: 25.0 mg/kg/injection, schedule: Q01DX Z (ip), vehicle: saline) 105 % of control; under setting [1], 114 % of control; (dose: 75.0 mg/kg/injection, schedule: Q01DX Z (ip), vehicle: saline) 116 % of control; (dose: 100.0 mg/kg/injection, schedule: Q01DX Z (ip), vehicle: saline) 106 % of control.

Regarding `S=c1nc[nH]c2c1ncn2C1CCCCO1` (stereo not given), the T/C runs as follows: (dose: 16.0 mg/kg/injection, schedule: Q01DX Z (ip), vehicle: carboxymethylcellulose (CMC)) 104 % of control; (dose: 31.0 mg/kg/injection, schedule: Q01DX Z (ip), vehicle: carboxymethylcellulose (CMC)) 104 % of control; (dose: 62.0 mg/kg/injection, schedule: Q01DX Z (ip), vehicle: carboxymethylcellulose (CMC)) 107 % of control; (dose: 125.0 mg/kg/injection, schedule: Q01DX Z (ip), vehicle: carboxymethylcellulose (CMC)) 96 % of control.

For the compound `Nc1ncnc2c1ncn2C(C=O)OC(C=O)CO` (stereo not given), the T/C is 97 % of control (dose: 4.0 mg/kg/injection, schedule: Q01DX Z (ip), vehicle: carboxymethylcellulose (CMC)); 102 % of control (dose: 6.0 mg/kg/injection, schedule: Q01DX Z (ip), vehicle: carboxymethylcellulose (CMC)); 106 % of control (dose: 8.0 mg/kg/injection, schedule: Q01DX Z (ip), vehicle: carboxymethylcellulose (CMC)); 170 % of control (dose: 12.0 mg/kg/injection, schedule: Q01DX015 (ip), vehicle: saline); 124 % of control (dose: 12.0 mg/kg/injection, schedule: Q01DX Z (ip), vehicle: saline); 171 % of control (dose: 13.0 mg/kg/injection, schedule: Q01DX015 (ip), vehicle: saline). Besides, the T/C runs as follows: (dose: 24.0 mg/kg/injection, schedule: Q01DX015 (ip), vehicle: saline) 189 % of control; (dose: 48.0 mg/kg/injection, schedule: Q01DX015 (ip), vehicle: saline) 111 % of control; under setting [1], 88 % of control.

Regarding `OCC1OC(n2cnc3c(=S)nc[nH]c32)C(O)C1O` (stereo not given), the T/C runs as follows: under setting [2], 114 % of control; (dose: 50.0 mg/kg/injection, schedule: Q01DX015 (ip), vehicle: carboxymethylcellulose (CMC)) 93 % of control; (dose: 75.0 mg/kg/injection, schedule: Q01DX015 (ip), vehicle: carboxymethylcellulose (CMC)) 93 % of control; under setting [3], 92 % of control; (dose: 100.0 mg/kg/injection, schedule: Q01DX015 (ip), vehicle: carboxymethylcellulose (CMC)) 94 % of control; (dose: 112.0 mg/kg/injection, schedule: Q01DX010 (ip), vehicle: carboxymethylcellulose (CMC)) 94 % of control. Besides, the T/C reads like this: (dose: 120.0 mg/kg/injection, schedule: Q01DX001 (ip), vehicle: carboxymethylcellulose (CMC)) 100 % of control; (dose: 125.0 mg/kg/injection, schedule: Q01DX015 (ip), vehicle: carboxymethylcellulose (CMC)) 90 % of control; (dose: 150.0 mg/kg/injection, schedule: Q01DX010 (ip), vehicle: carboxymethylcellulose (CMC)) 90 % of control; (dose: 150.0 mg/kg/injection, schedule: Q01DX015 (ip), vehicle: carboxymethylcellulose (CMC)) 95 % of control; (dose: 150.0 mg/kg/injection, schedule: Q01DX Z (ip), vehicle: carboxymethylcellulose (CMC)) 97 % of control; (dose: 180.0 mg/kg/injection, schedule: Q01DX001 (ip), vehicle: alkali diluted with saline) 110 % of control. The T/C runs as follows: (dose: 180.0 mg/kg/injection, schedule: Q01DX001 (ip), vehicle: carboxymethylcellulose (CMC)) 100 % of control; (dose: 225.0 mg/kg/injection, schedule: Q01DX010 (ip), vehicle: carboxymethylcellulose (CMC)) 88 % of control; (dose: 270.0 mg/kg/injection, schedule: Q01DX001 (ip), vehicle: alkali diluted with saline) 103 % of control; (dose: 270.0 mg/kg/injection, schedule: Q01DX001 (ip), vehicle: carboxymethylcellulose (CMC)) 100 % of control; (dose: 300.0 mg/kg/injection, schedule: Q01DX010 (ip), vehicle: carboxymethylcellulose (CMC)) 91 % of control; (dose: 300.0 mg/kg/injection, schedule: Q01DX Z (ip), vehicle: carboxymethylcellulose (CMC)) 92 % of control. Also, the T/C is, setting by setting: (dose: 400.0 mg/kg/injection, schedule: Q01DX001 (ip), vehicle: alkali diluted with saline) 99 % of control; (dose: 400.0 mg/kg/injection, schedule: Q01DX001 (ip), vehicle: carboxymethylcellulose (CMC)) 96 % of control; (dose: 600.0 mg/kg/injection, schedule: Q01DX001 (ip), vehicle: alkali diluted with saline) 102 % of control; (dose: 600.0 mg/kg/injection, schedule: Q01DX001 (ip), vehicle: carboxymethylcellulose (CMC)) 101 % of control; (dose: 900.0 mg/kg/injection, schedule: Q01DX001 (ip), vehicle: alkali diluted with saline) 100 % of control.

As for `N#CCSc1ncnc2nc[nH]c12`, the T/C is, setting by setting: (dose: 12.5 mg/kg/injection, schedule: Q01DX Z (ip), vehicle: carboxymethylcellulose (CMC)) 86 % of control; (dose: 25.0 mg/kg/injection, schedule: Q01DX Z (ip), vehicle: carboxymethylcellulose (CMC)) 88 % of control; under setting [2], 87 % of control; under setting [3], 90 % of control; (dose: 100.0 mg/kg/injection, schedule: Q01DX Z (ip), vehicle: carboxymethylcellulose (CMC)) 100 % of control.
